Measurements from patent US9944670B2, “Gemcitabine derivatives, compositions comprising same and pharmaceutical applications thereof” (HANGZHOU MINSHENG INSTITUTES FOR PHARMA RESEARCH CO., LTD, priority 2013, dated 2018).
Where “and” joins values, the source holds several entries; their conditions need not be identical. Equal entries are not always repeated. Structures can show the parent of a compound that is named as a salt.

Legend:
MCF-7-ADR = assay: MTT cytotoxic activity against drug-resistant tumor cell line; assay type: cell-based, Human; details: for IC50: NCI/ADR-RES, doxorubicin-resistant human breast cancer cells, 48 hours incubation, MTT, Bliss method
Protocol: Purpose: Compare differences of cytotoxic activity against drug-resistant tumor cell lines between gemcitabine derivatives (Compounds of examples 1-9 of the present invention) and gemcitabine (known compound, as “comparative example” in the table below).
Materials and Methods: Human breast cancer doxorubicin-resistant cell line MCF-7-ADR was cultured in 1640 medium containing 5% fetal calf serum; gemcitabine and its derivative GI-06 were dissolved in DMSO, frozen preserved at −20° C., and diluted by 1640 medium containing 5% fetal calf serum to the appropriate concentration before they were used. The final concentration of DMSO solution was 0.5%. Activity tests: MCF-7-ADR cells in the logarithmic growth phase were seeded 3×10^3 per well in 96-well culture plates. The medium was changed after incubating for 24 hours by adding test solutions at different concentrations, while the control group was added DMSO medium with concentration of 0.5%, and the cells continued to be incubated for 48 hours. Then the cell activity was assayed by MTT. Inhibition rate (%)=([…](absorbance of the blank control group−absorbance of the administration group)/absorbance of the blank control group)×100%; IC50: calculated by Bliss method.

HCT-116 colon cancer = assay: Growth of subcutaneous transplanted tumor in nude mice bearing HCT-116 colon cancer
Description: Purpose: 4 compounds' influence to the growth of subcutaneous transplanted tumor in nude mice bearing HCT-116 colon cancer
Positive control: Gemcitabine hydrochloride.
Experimental animals: Nude mice, female, 4-5 weeks old, 60 cases.
Cell lines: HCT-116 colon cancer cell.
Modeling: Five mice were inoculated by cell suspension before the experiment, after passaging 4 times in nude mice, prepared model by subcutaneous inoculation using the interpolation block tumor masses.
Route of administration: Gemcitabine hydrochloride group was adminstered by intraperitoneal injection, the rest groups were adminstered by oral gavage.
The adminstered volume: 0.1 ml/10 g
Observation time: Consecutive observation for 15 days after administration, tumor volume was measured twice a week. Stop administration at the 15th day.

A2780 ovarian cancer = assay: Growth of subcutaneous transplanted tumor in nude mice bearing A2780 ovarian cancer
Description: Test sample: GI-06; Positive control: gemcitabine hydrochloride
Experimental animals: nude mice, female, 4-5 weeks old, 40 cases.
Cell lines: A2780 ovarian cancer cell, purchased from Shanghai institute of cell biology.
Grouping: When tumor volume grew to 100 mm^3, nude mice which reached standard were randomly divided into five groups, namely solvent control group, gemcitabine hydrochloride group, GI-06 high, medium, low dosage groups, 6 nude mice in each group.
The administration volume: 0.1 ml/10 g
Frequency of administration: Gemcitabine hydrochloride was respectively adminstered twice in the first and third week (D1, D4, D15, D18), 4 times in total; Each GI-06 dosage group was adminstered once a day, 21 days in total.
Animals were sacrificed on the 22nd day, the tumors were weighed.
Statistical Methods: Excel statistical software package, ANOVA analysis.

[1] = 15 mg/kg oral gavage, five consecutive days a week, 10 times in total
[2] = 160 mg/kg intraperitoneal injection, D1, D4, D15, D18
[3] = high dosage 12 mg/kg oral gavage once a day, 21 days
[4] = low dosage 4 mg/kg oral gavage once a day, 21 days
[5] = medium dosage 8 mg/kg oral gavage once a day, 21 days
[6] = low dosage 5 mg/kg oral gavage, 12 times in total
[7] = medium dosage 10 mg/kg oral gavage, 12 times in total
[8] = 160 mg/kg intraperitoneal injection, D1 and D4, twice in total

SMILES: CC(C)(C)c1cnc(CSc2cnc(NC(=O)CCCCC(=O)Nc3ccn([C@@H]4O[C@H](CO)[C@@H](O)C4(F)F)c(=O)n3)s2)o1 [GI-05, N-(5-(((5-(t-butyl)oxazol-2-yl)methyl)thio)thiazol-2-yl)-N′-(1-((2R,4R,5R)-3,3-difluoro-4-hydroxy-5-(hydroxymethyl)tetrahydrofuran-2-yl)-2-oxo-1,2-dihydro-pyrimidin-4-yl)adipamide]
- IC50 (MCF-7-ADR): 2.46 µM
- T/C (%) D15 (HCT-116 colon cancer; [1]): 56.14%
- Tumor volume (mm^3) D15 (HCT-116 colon cancer; [1]): 935.14 ± 130.33 mm^3
- Weight (g) D15 (HCT-116 colon cancer; [1]): 18.1 ± 1.2 g

SMILES: CC(C)(C)c1cnc(CSc2cnc(NC(=O)CCCCCCC(=O)Nc3ccn([C@@H]4O[C@H](CO)[C@@H](O)C4(F)F)c(=O)n3)s2)o1 [GI-07, N-(5-(((5-(t-butyl)oxazol-2-yl)methyl)thio)thiazol-2-yl)-N′-(1-((2R,4R,5R)-3,3-difluoro-4-hydroxy-5-(hydroxymethyl)tetrahydrofuran-2-yl)-2-oxo-1,2-dihydro-pyrimidin-4-yl)suberamide]
- IC50 (MCF-7-ADR): 3.55 µM

SMILES: CC(C)(C)c1cnc(CSc2cnc(NC(=O)C(=O)Nc3ccn([C@@H]4O[C@H](CO)[C@@H](O)C4(F)F)c(=O)n3)s2)o1 [GI-01, N-(5-(((5-(t-butyl)oxazol-2-yl)methyl)thio)thiazol-2-yl)-N′-(1-((2R,4R,5R)-3,3-difluoro-4-hydroxy-5-(hydroxymethyl)tetrahydrofuran-2-yl)-2-oxo-1,2-dihydro-pyrimidin-4-yl)oxamide]
- IC50 (MCF-7-ADR): 5.56 µM

SMILES: Nc1ccn([C@@H]2O[C@H](CO)[C@@H](O)C2(F)F)c(=O)n1 [gemcitabine]
- IC50 (MCF-7-ADR): > 10 µM
- T/C (%) D22 (A2780 ovarian cancer; [2]): 1.32%

SMILES: CC(C)(C)c1cnc(CSc2cnc(NC(=O)CCCCCC(=O)Nc3ccn([C@@H]4O[C@H](CO)[C@@H](O)C4(F)F)c(=O)n3)s2)o1 [GI-06, N-(5-(((5-(t-butyl)oxazol-2-yl)methyl)thio)thiazol-2-yl)-N′-(1-((2R,4R,5R)-3,3-difluoro-4-hydroxy-5-(hydroxymethyl)tetrahydrofuran-2-yl)-2-oxo-1,2-dihydro-pyrimidin-4-yl)pimelamide]
- IC50 (MCF-7-ADR): 1.38 µM
- inhibitory activity against MCF-7-ADR proliferation (in words) (MCF-7-ADR; compared with gemcitabine): strongest anti-tumor activity
- T/C (%) D22 (A2780 ovarian cancer; [3]): 0.46%
- Tumor volume (mm^3) D22 (A2780 ovarian cancer; [3]): 19.83 ± 35.11^⋆ mm^3
- T/C (%) D22 (A2780 ovarian cancer; [4]): 39.55%
- Tumor volume (mm^3) D22 (A2780 ovarian cancer; [4]): 1757.57 ± 1306.74^⋆ mm^3
- T/C (%) D22 (A2780 ovarian cancer; [5]): 2.11%
- Tumor volume (mm^3) D22 (A2780 ovarian cancer; [5]): 92.38 ± 159.91^⋆ mm^3
- T/C (%) D15 (HCT-116 colon cancer; [1]): 12% and 12.64%
- Tumor volume (mm^3) D15 (HCT-116 colon cancer; [1]): 208.14 ± 80.53⋆ mm^3
- Weight (g) D15 (HCT-116 colon cancer; [1]): 18.0 ± 1.5 g
- T/C (%) D15 (HCT-116 colon cancer; [6]): 27% and 27.50%
- Tumor volume (mm^3) D15 (HCT-116 colon cancer; [6]): 45.172 ± 214.92⋆ mm^3
- Weight (g) D15 (HCT-116 colon cancer; [6]): 17.2 ± 0.8 g
- T/C (%) D15 (HCT-116 colon cancer; [7]): 13% and 13.09%
- Tumor volume (mm^3) D15 (HCT-116 colon cancer; [7]): 222.43 ± 113.48⋆ mm^3
- Weight (g) D15 (HCT-116 colon cancer; [7]): 17.5 ± 1.1 g

SMILES: CC(C)(C)c1cnc(CSc2cnc(NC(=O)CCCCCCCCC(=O)Nc3ccn([C@@H]4O[C@H](CO)[C@@H](O)C4(F)F)c(=O)n3)s2)o1 [GI-09, N-(5-(((5-(t-butyl)oxazol-2-yl)methyl)thio)thiazol-2-yl)-N′-(1-((2R,4R,5R)-3,3-difluoro-4-hydroxy-5-(hydroxymethyl)tetrahydrofuran-2-yl)-2-oxo-1,2-dihydro-pyrimidin-4-yl)sebacamide]
- IC50 (MCF-7-ADR): 2.66 µM
- T/C (%) D15 (HCT-116 colon cancer; [1]): 43.26%
- Tumor volume (mm^3) D15 (HCT-116 colon cancer; [1]): 724.50 ± 158.19 mm^3
- Weight (g) D15 (HCT-116 colon cancer; [1]): 18.6 ± 1.4 g

SMILES: CC(C)(C)c1cnc(CSc2cnc(NC(=O)CCCCCCCC(=O)Nc3ccn([C@@H]4O[C@H](CO)[C@@H](O)C4(F)F)c(=O)n3)s2)o1 [GI-08, N-(5-(((5-(t-butyl)oxazol-2-yl)methyl)thio)thiazol-2-yl)-N′-(1-((2R,4R,5R)-3,3-difluoro-4-hydroxy-5-(hydroxymethyl)tetrahydrofuran-2-yl)-2-oxo-1,2-dihydro-pyrimidin-4-yl)azelamide]
- IC50 (MCF-7-ADR): 3.29 µM

SMILES: CC(C)(C)c1cnc(CSc2cnc(NC(=O)CCC(=O)Nc3ccn([C@@H]4O[C@H](CO)[C@@H](O)C4(F)F)c(=O)n3)s2)o1 [GI-03, N-(5-(((5-(t-butyl)oxazol-2-yl)methyl)thio)thiazol-2-yl)-N′-(1-((2R,4R,5R)-3,3-difluoro-4-hydroxy-5-(hydroxymethyl)tetrahydrofuran-2-yl)-2-oxo-1,2-dihydro-pyrimidin-4-yl)succinamide]
- IC50 (MCF-7-ADR): 6.13 µM

SMILES: CC(C)(C)c1cnc(CSc2cnc(NC(=O)CCCC(=O)Nc3ccn([C@@H]4O[C@H](CO)[C@@H](O)C4(F)F)c(=O)n3)s2)o1 [GI-04, N-(5-(((5-(t-butyl)oxazol-2-yl)methyl)thio)thiazol-2-yl)-N′-(1-((2R,4R,5R)-3,3-difluoro-4-hydroxy-5-(hydroxymethyl)tetrahydrofuran-2-yl)-2-oxo-1,2-dihydro-pyrimidin-4-yl)glutaramide]
- IC50 (MCF-7-ADR): 3.15 µM
- T/C (%) D15 (HCT-116 colon cancer; [1]): 60.9%
- Tumor volume (mm^3) D15 (HCT-116 colon cancer; [1]): 1008.78 ± 174.29 mm^3
- Weight (g) D15 (HCT-116 colon cancer; [1]): 19.9 ± 1.2 g

SMILES: CC(C)(C)c1cnc(CSc2cnc(NC(=O)CC(=O)Nc3ccn([C@@H]4O[C@H](CO)[C@@H](O)C4(F)F)c(=O)n3)s2)o1 [GI-02, N-(5-(((5-(t-butyl)oxazol-2-yl)methyl)thio)thiazol-2-yl)-N′-(1-((2R,4R,5R)-3,3-difluoro-4-hydroxy-5-(hydroxymethyl)tetrahydrofuran-2-yl)-2-oxo-1,2-dihydro-pyrimidin-4-yl)malonamide]
- IC50 (MCF-7-ADR): 4.77 µM

SMILES: Nc1ccn([C@@H]2O[C@H](CO)[C@@H](O)C2(F)F)c(=O)n1 [Gemcitabine hydrochloride, reference compound]
- Tumor volume (mm^3) D22 (A2780 ovarian cancer; [2]): 59.97 ± 72.33^⋆ mm^3
- Tumor volume (mm^3) D15 (HCT-116 colon cancer; [8]): 99.90 ± 55.92⋆ mm^3
- Weight (g) D15 (HCT-116 colon cancer; [8]): 20.0 ± 1.5 g
- T/C (%) D15 (HCT-116 colon cancer; 160 mg/kg intraperitoneal injection, D1 and D4, twice in total, hydrochloride): 5.83%
- T/C (%) D15 (HCT-116 colon cancer; 160 mg/kg intraperitoneal injection, D1 and D4, twice in total, listed as gemcitabine hydrochloride, hydrochloride): 5.8%
